According to PubChem BioAssay AID1117286 (Broad Institute, 2014):
Results filed as inconclusive are left out. Calls of active or inactive are those of the source.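 Rule for the calls: active = every test run gives a falling-signal AC50 no higher than twice the top tested dose; inconclusive = runs disagree, or a flat partial drop, or a poor fit; inactive = all runs inactive, including rising signal.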

These compounds were tested against Endoplasmic reticulum aminopeptidase 2 (Homo sapiens) (UniProt Q6P179) (assay: inhibition of recombinant ERAP2 Arg-AMC cleavage – biochemical, plate reader, dry powder samples, selectivity assay for selective ERAP1 modulator project, dose response (AID 1117286)). Conditions: Recombinant ERAP2, Arg-AMC cleavage fluorescence, 1 h.
Endoplasmic reticulum aminopeptidase 2 (Homo sapiens), sequence (Q6P179 whole entry, looked up): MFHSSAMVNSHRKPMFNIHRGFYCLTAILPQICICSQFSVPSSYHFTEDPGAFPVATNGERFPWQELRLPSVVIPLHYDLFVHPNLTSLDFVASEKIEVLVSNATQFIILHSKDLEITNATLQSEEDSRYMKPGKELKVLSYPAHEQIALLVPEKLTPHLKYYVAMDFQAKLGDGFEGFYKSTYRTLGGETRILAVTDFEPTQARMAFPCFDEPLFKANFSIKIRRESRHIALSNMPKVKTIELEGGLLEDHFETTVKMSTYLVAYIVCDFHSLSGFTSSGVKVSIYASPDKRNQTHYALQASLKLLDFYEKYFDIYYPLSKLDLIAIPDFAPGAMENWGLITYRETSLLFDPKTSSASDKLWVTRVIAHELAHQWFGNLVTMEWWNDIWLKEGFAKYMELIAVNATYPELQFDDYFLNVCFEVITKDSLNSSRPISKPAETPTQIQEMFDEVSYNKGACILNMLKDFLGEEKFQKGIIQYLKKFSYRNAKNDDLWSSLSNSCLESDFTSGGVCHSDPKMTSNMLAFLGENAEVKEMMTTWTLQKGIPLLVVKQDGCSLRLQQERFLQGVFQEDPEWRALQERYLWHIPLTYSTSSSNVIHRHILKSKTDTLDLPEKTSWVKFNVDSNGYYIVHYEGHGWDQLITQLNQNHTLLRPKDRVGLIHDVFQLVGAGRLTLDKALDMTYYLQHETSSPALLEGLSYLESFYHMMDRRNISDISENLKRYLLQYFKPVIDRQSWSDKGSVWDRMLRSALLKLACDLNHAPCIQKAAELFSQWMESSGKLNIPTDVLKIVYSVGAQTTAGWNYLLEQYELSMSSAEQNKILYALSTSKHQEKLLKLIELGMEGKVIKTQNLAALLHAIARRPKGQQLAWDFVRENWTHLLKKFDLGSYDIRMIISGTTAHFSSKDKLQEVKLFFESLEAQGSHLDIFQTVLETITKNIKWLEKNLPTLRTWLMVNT

AC50, inactive:
COc1ccc(C(=O)Nc2cc(C(F)(F)F)ccc2N2CCCCC2)cc1S(=O)(=O)O > 100 µM
CC(=O)N1CCN(C(=O)[C@@H]2CCN2C(=O)Nc2ccc(C)cc2)CC1 > 100 µM

Same assay, conditions: Recombinant ERAP2, Arg-AMC cleavage fluorescence, 1 h; at 26 µM (top of the series)

Activity change, negative = inhibition, inactive:
COc1ccc(C2=NN(c3ccc(C(=O)O)cc3)C(c3ccc(OC)c(OC)c3)C2)cc1 (configuration not stated)

Same assay, conditions: Recombinant ERAP2, Arg-AMC cleavage fluorescence, 1 h; at 50 µM (top of the series)

Activity change, negative = inhibition, inactive:
COc1ccc(C(=O)O)cc1S(=O)(=O)Nc1cc(C)ccc1N1CCCCC1
Cc1ccccc1S(=O)(=O)Nc1cc(C(F)(F)F)ccc1N1CCCCC1
CC(=O)N1CCN(C(=O)C2(NC(=O)Nc3ccc(C(C)C)cc3)CCCCC2)CC1
COc1cccc(NC(=O)NC2(C(=O)N3CCN(C(C)=O)CC3)CCCCC2)c1
COc1ccc(C(=O)O)cc1S(=O)(=O)Nc1cc(C(F)(F)F)ccc1N1CCOCC1
O=C(Nc1cc(C(F)(F)F)ccc1N1CCCCC1)c1ccc(S(=O)(=O)O)cc1
Cc1ccc(NC(=O)NC2(C(=O)N3CCOCC3)CCCCC2)cc1
CC(=O)N1CCN(C(=O)C2CCCN2C(=O)Nc2ccc(C)cc2)CC1 (configuration not stated)
COc1ccc(C(=O)Nc2cc(C(F)(F)F)ccc2N2CCCC2)cc1S(=O)(=O)O
O=S(=O)(Nc1cc(C(F)(F)F)ccc1N1CCCCC1)c1ccc(C(F)(F)F)cc1
O=S(=O)(Nc1cc(C(F)(F)F)ccc1N1CCCCC1)c1ccc(-c2ccccc2)cc1
CC(=O)N1CCN(C(=O)CNC(=O)Nc2ccc(C)cc2)CC1
COc1ccc(C(=O)O)cc1S(=O)(=O)Nc1cc(C(F)(F)F)ccc1N(C)C
NC(=NCCc1c[nH]c2ccccc12)NS(=O)(=O)c1cc(F)ccc1F
COc1ccc(S(=O)(=O)Nc2cc(C(F)(F)F)ccc2N2CCCCC2)cc1
CC(=O)N1CCN(C(=O)C2(NC(=O)NC(C)(C)C)CCCCC2)CC1
COc1ccc(C(=O)Nc2ccccc2N2CCCCC2)cc1S(=O)(=O)O
CC(=O)N1CCN(C(=O)C2(NC(=O)Nc3cccc(C(F)(F)F)c3)CCCCC2)CC1
COc1ccc(C(=O)O)cc1S(=O)(=O)Nc1cc(C(F)(F)F)ccc1N1CCCCC1
Cc1ccc(NC(=O)NC2(C(=O)N3CCNCC3)CCCCC2)cc1
Cn1cnc(S(=O)(=O)Nc2cc(C(F)(F)F)ccc2N2CCCCC2)c1
COc1ccc(C(=O)Nc2cccc(C(F)(F)F)c2)cc1S(=O)(=O)O
N#Cc1ccc(S(=O)(=O)Nc2cc(C(F)(F)F)ccc2N2CCCCC2)cc1
COc1ccc(C(=O)O)cc1S(=O)(=O)Nc1cc(F)ccc1N1CCCCC1
CC(=O)N1CCN(C(=O)C2(NC(=O)Nc3ccc(Cl)cc3)CCCCC2)CC1
CC(=O)N1CCN(C(=O)C2(NC(=O)Nc3ccc(F)cc3)CCCCC2)CC1
O=S(=O)(Nc1cc(C(F)(F)F)ccc1N1CCCCC1)c1ccccc1
O=S(=O)(Nc1cc(C(F)(F)F)ccc1N1CCCCC1)c1ccc(Br)cc1
CC(=O)N1CCN(C(=O)C2(NC(=O)Nc3ccc(C(C)C)cc3)CCCC2)CC1
O=S(=O)(Nc1cc(C(F)(F)F)ccc1N1CCCCC1)c1ccc(Cl)cc1
CC(=O)N1CCN(C(=O)C2(NC(=O)Nc3ccc(C)cc3)CCCCC2)CC1
CC(=O)N1CCN(C(=O)C2(NC(=O)NCCc3ccccc3)CCCCC2)CC1
CC(=O)N1CCN(C(=O)C2(NC(=O)Nc3ccccc3)CCCC2)CC1
CC(=O)N1CCN(C(=O)C2(NC(=O)Nc3ccccc3F)CCCCC2)CC1
O=[N+]([O-])c1cccc(S(=O)(=O)Nc2cc(C(F)(F)F)ccc2N2CCCCC2)c1
CC(=O)N1CCN(C(=O)C2(NC(=O)Nc3ccc(C(F)(F)F)cc3)CCCC2)CC1
Cc1ccc(NC(=O)NC2(C(=O)N3CCN(c4ccccc4)CC3)CCCCC2)cc1
CC(=O)N1CCN(C(=O)C2(NC(=O)Nc3ccccc3)CCCCC2)CC1
COc1ccc(C(=O)O)cc1S(=O)(=O)Nc1ccccc1N1CCCCC1
O=S(=O)(Nc1cc(C(F)(F)F)ccc1N1CCCCC1)c1cc(Cl)cc(Cl)c1
CC(=O)N1CCN(C(=O)C(C)(C)NC(=O)Nc2ccc(C)cc2)CC1
O=[N+]([O-])c1ccc(S(=O)(=O)Nc2cc(C(F)(F)F)ccc2N2CCCCC2)c([N+](=O)[O-])c1
CC(=O)N1CCN(C(=O)C2(NC(=O)Nc3ccccc3C(F)(F)F)CCCCC2)CC1
COc1ccc(NC(=O)NC2(C(=O)N3CCN(C(C)=O)CC3)CCCCC2)cc1
COc1ccc(C(=O)Nc2cc(F)ccc2N2CCCCC2)cc1S(=O)(=O)O
CC(=O)N1CCN(C(=O)C2(NC(=O)Nc3ccc(F)cc3)CCCC2)CC1
O=S(=O)(Nc1cc(C(F)(F)F)ccc1N1CCCCC1)c1ccc(F)cc1
COc1ccc(C(=O)Nc2cc(C)ccc2N2CCCCC2)cc1S(=O)(=O)O
CC(=O)N1CCN(C(=O)C2(NC(=O)Nc3cccc(F)c3)CCCCC2)CC1
